Laboratory results published in publication PMC3574584 (Journal of medicinal chemistry, 2013).

Key:
[1] = target: T1, mPTPB (Mycobacterium tuberculosis, UniProt I6WXK4); assay type: biochemical
T1 sequence (I6WXK4 1-276): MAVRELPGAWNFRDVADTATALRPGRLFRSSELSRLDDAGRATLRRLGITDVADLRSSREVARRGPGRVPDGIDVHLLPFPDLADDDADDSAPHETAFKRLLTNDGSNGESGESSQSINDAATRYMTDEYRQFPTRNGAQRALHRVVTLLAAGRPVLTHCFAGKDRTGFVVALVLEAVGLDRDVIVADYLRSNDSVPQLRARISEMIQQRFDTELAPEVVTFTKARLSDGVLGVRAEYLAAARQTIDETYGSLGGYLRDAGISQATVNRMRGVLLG

[2] = target: T2, TC-PTP (Homo sapiens, UniProt P17706); experiment: PTP selectivity pNPP assay, TC-PTP; assay type: biochemical, mammalian
T2 sequence (P17706 1-415): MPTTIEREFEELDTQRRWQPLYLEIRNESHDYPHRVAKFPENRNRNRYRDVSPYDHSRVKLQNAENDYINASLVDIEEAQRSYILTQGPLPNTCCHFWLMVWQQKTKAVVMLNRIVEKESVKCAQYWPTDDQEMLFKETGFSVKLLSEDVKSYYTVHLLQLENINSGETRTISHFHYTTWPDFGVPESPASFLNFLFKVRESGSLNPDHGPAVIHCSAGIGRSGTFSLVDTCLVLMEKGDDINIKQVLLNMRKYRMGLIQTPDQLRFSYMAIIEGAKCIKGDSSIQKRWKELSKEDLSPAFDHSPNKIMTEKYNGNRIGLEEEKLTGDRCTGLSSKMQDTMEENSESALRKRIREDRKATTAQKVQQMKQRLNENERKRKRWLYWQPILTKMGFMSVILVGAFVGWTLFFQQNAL

## O=C(O)c1cc2c(C#Cc3cccc(C(F)(F)F)c3)c(-c3ccccc3)oc2cc1O [Compound 4g, 6-hydroxy-2-phenyl-3-((3-(trifluoromethyl)phenyl)ethynyl)benzofuran-5-carboxylic acid]
[1]
  mode of mPTPB inhibition: reversible and noncompetitive

## O=C(O)c1cc2c(C#Cc3cc(F)cc(F)c3)c(-c3ccccc3)oc2cc1O [Compound 4f, 3-((3,5-difluorophenyl)ethynyl)-6-hydroxy-2-phenylbenzofuran-5-carboxylic acid]
[1]
  decrease in IC50 for mPTPB compared to 4b: 3.3 fold

## O=C(O)c1cc2c(C#Cc3ccc(F)cc3F)c(-c3ccccc3)oc2cc1O [Compound 4e, 3-((2,4-difluorophenyl)ethynyl)-6-hydroxy-2-phenylbenzofuran-5-carboxylic acid]
[2]
  IC50: 9 ± 0.5 µM
